Assay results published in PubChem BioAssay (NCI).
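Five concentrations, 48 hours, 96-well plates. TGI: total growth inhibition.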

How the values were obtained:
Experiment in all cases: NCI-60 cell line screen, 48 h
DMS 273 small cell lung = system: DMS 273 small cell lung
NCI-H226 lung = system: NCI-H226 lung
SNB-75 CNS = system: SNB-75 CNS
A549 NSCLC = system: A549 NSCLC
U251 CNS = system: U251 CNS
HOP-62 NSCLC = system: HOP-62 NSCLC
SK-MEL-5 melanoma = system: SK-MEL-5 melanoma
OVCAR-3 ovarian = system: OVCAR-3 ovarian
LOX IMVI melanoma = system: LOX IMVI melanoma
NCI-H460 lung = system: NCI-H460 lung
KM12 colon = system: KM12 colon
RXF 393 renal = system: RXF 393 renal
M14 melanoma = system: M14 melanoma
HCC-2998 colon = system: HCC-2998 colon
NCI-H23 lung = system: NCI-H23 lung
LXFL 529 NSCLC = system: LXFL 529 NSCLC
SNB-78 CNS = system: SNB-78 CNS
HT29 colon = system: HT29 colon
XF 498 CNS = system: XF 498 CNS
OVCAR-8 ovarian = system: OVCAR-8 ovarian
SF-268 CNS = system: SF-268 CNS
KM20L2 colon = system: KM20L2 colon
HCT-15 colon = system: HCT-15 colon
HOP-18 NSCLC = system: HOP-18 NSCLC
UO-31 renal = system: UO-31 renal
CAKI-1 renal = system: CAKI-1 renal
COLO 205 colon = system: COLO 205 colon
UACC-257 melanoma = system: UACC-257 melanoma
OVCAR-4 ovarian = system: OVCAR-4 ovarian
MALME-3M melanoma = system: MALME-3M melanoma
ACHN renal = system: ACHN renal
SK-OV-3 ovarian = system: SK-OV-3 ovarian
MOLT-4 leukemia = system: MOLT-4 leukemia
SN12C renal = system: SN12C renal
TK-10 renal = system: TK-10 renal
CCRF-CEM leukemia = system: CCRF-CEM leukemia
DLD-1 colon = system: DLD-1 colon
K-562 leukemia = system: K-562 leukemia
786-0 renal = system: 786-0 renal
RPMI-8226 leukemia = system: RPMI-8226 leukemia
HL-60(TB) leukemia = system: HL-60(TB) leukemia
EKVX NSCLC = system: EKVX NSCLC
SK-MEL-28 melanoma = system: SK-MEL-28 melanoma
OVCAR-5 ovarian = system: OVCAR-5 ovarian
HOP-92 NSCLC = system: HOP-92 NSCLC
SW-620 colon = system: SW-620 colon
NCI-H522 lung = system: NCI-H522 lung
SF-295 CNS = system: SF-295 CNS
DMS 114 small cell lung = system: DMS 114 small cell lung
SNB-19 CNS = system: SNB-19 CNS

Measured: TGI

CCc1cccc(C)c1NC(=O)CC(=O)NNC(N)=S
> 100 µM: DMS 273 small cell lung | NCI-H226 lung | SNB-75 CNS | A549 NSCLC | U251 CNS | HOP-62 NSCLC | SK-MEL-5 melanoma | OVCAR-3 ovarian | LOX IMVI melanoma | NCI-H460 lung | KM12 colon | RXF 393 renal | M14 melanoma | HCC-2998 colon | NCI-H23 lung | LXFL 529 NSCLC | SNB-78 CNS | HT29 colon | XF 498 CNS | OVCAR-8 ovarian | SF-268 CNS | KM20L2 colon | HCT-15 colon | HOP-18 NSCLC | UO-31 renal | CAKI-1 renal | COLO 205 colon | UACC-257 melanoma | OVCAR-4 ovarian | MALME-3M melanoma | ACHN renal | SK-OV-3 ovarian | MOLT-4 leukemia | SN12C renal | TK-10 renal | CCRF-CEM leukemia | DLD-1 colon | K-562 leukemia | 786-0 renal | RPMI-8226 leukemia | HL-60(TB) leukemia | EKVX NSCLC | SK-MEL-28 melanoma | OVCAR-5 ovarian | HOP-92 NSCLC | SW-620 colon | NCI-H522 lung | SF-295 CNS | DMS 114 small cell lung | SNB-19 CNS
